Tests used:
Format in all cases: biochemical
[1] = target: T1, Hordeum HPPD (SEQ ID NO:2) (Hordeum vulgare, UniProt O48604, A164G/R146V/R147D/R148G); assay: HPPD activity assay, in vitro characterization
T1 construct: subcloned into a modified pET24D (Novagen) expression vector resulting in N-terminally His-tagged expression constructs; His (N); made in house; host or cells: E. coli BL21 (DE3)
Protocol: (§1) HPPD produces homogentisic acid and CO2 from 4-hydroxyphenylpyruvate (4-HPP) and O2. The activity assay for HPPD is based on the analysis of homogentisic acid by reversed phase HPLC.
(§2) The assay mixture can contain 150 mM potassium phosphate buffer pH 7.0, 50 mM L-ascorbic acid, 100 μM Catalase (Sigma-Aldrich), 1 μM FeSO4 and 0.2 units of purified HPPD enzyme in a total volume of 505 μl. 1 unit is defined as the amount of enzyme that is required to produce 1 nmol of HGA per minute at 20° C.
(§3) After a preincubation of 30 min the reaction is started by adding 4-HPP to a final concentration of 0.05 mM. The reaction is allowed to proceed for 45 min at room temperature. The reaction is stopped by the addition of 50 μl of 4.5 M phosphoric acid. The sample is filtered using a […] pore size PVDF filtration device.
(§4) 5 μl of the cleared sample is analyzed on an UPLC HSS T3 column (particle size 1.8 μm, dimensions 2,1×50 mm; Waters) by isocratic elution using 90% 20 mM NaH2PO4 pH 2.2, 10% methanol (v/v).
(§5) HGA is detected electrochemically at 750 mV (mode: DC; polarity: positive) and quantified by integrating peak areas (Empower software; Waters).
(§6) Inhibitors are dissolved in DMSO (dimethylsulfoxide) to a concentration of 0.5 mM. From this stock solution serial five-fold dilutions are prepared in DMSO, which are used in the assay. The respective inhibitor solution accounts for 1% of the assay volume. […] Activities are normalized by setting the uninhibited enzyme activity to 100%. IC50 values are calculated using non-linear regression.
Using methods which are described in the above examples or well known in the art, purified, recombinant wildtype HPPD enzymes are characterized with respect to their kinetic properties and sensitivity towards HPPD inhibiting herbicides. Apparent michaelis constants (Km) and maximal reaction velocities (Vmax) are calculated by non-linear regression with the software GraphPad Prism 5 (GraphPad Software, La Jolla, USA) using a substrate inhibition model. […] Weighted means (by standard error) of Km and IC50 values are calculated from at least three independent experiments. […] To assess the potential performance of a herbicide tolerance trait a tolerance index (TI) is calculated using the following formula: […]

Kordia HPPD = assay: HPPD activity assay, in vitro characterization; settings: normalized to Hordeum SEQ ID NO:2
Protocol: as §1, §2, §3, §4, §5
(§7) Inhibitors are dissolved in DMSO (dimethylsulfoxide) to a concentration of 0.5 mM. From this stock solution serial five-fold dilutions are prepared in DMSO, which are used in the assay. The respective inhibitor solution accounts for 1% of the assay volume. Thus, final inhibitor concentrations range from […], respectively. Activities are normalized by setting the uninhibited enzyme activity to 100%. IC50 values are calculated using non-linear regression.
(§8) Using methods which are described in the above examples or well known in the art, purified, recombinant wildtype HPPD enzymes are characterized with respect to their kinetic properties and sensitivity towards HPPD inhibiting herbicides. Apparent michaelis constants (Km) and maximal reaction velocities (Vmax) are calculated by non-linear regression with the software GraphPad Prism 5 (GraphPad Software, La Jolla, USA) using a substrate inhibition model. Apparent kcat values are calculated from Vmax assuming 100% purity of the enzyme preparation. Weighted means (by standard error) of Km and IC50 values are calculated from at least three independent experiments. The Cheng-Prusoff equation for competitive inhibition (Cheng, Y. C.; Prusoff, W. H. Biochem Pharmacol 1973, 22, 3099-3108) is used to calculate dissociation constants (Ki). • Field performance of the HPPD enzyme, which is used as a herbicide tolerance trait, may depend not only on its lack of sensitivity towards HPPD inhibiting herbicides but also on its activity. To assess the potential performance of a herbicide tolerance trait a tolerance index (TI) is calculated using the following formula: […]
(§9) The reference SEQ ID NO:2 was included as a comparative control in a representative number of experiments and the values given in Table 12 are the average values from a number of experiments. The TI values given for various HPPD enzymes from different organisms are normalized to the value of the reference SEQ ID NO:2.

Lolium HPPD = assay: HPPD activity assay, in vitro characterization; settings: normalized to Hordeum SEQ ID NO:2
Protocol: as §1, §2, §3, §4, §5, §7, §8, §9

Rhodococcus HPPD1 = assay: HPPD activity assay, in vitro characterization; settings: normalized to Hordeum SEQ ID NO:2
Protocol: as §1, §2, §3, §4, §5, §7, §8, §9

Rhodococcus HPPD2 = assay: HPPD activity assay, in vitro characterization; settings: normalized to Hordeum SEQ ID NO:2
Protocol: as §1, §2, §3, §4, §5, §7, §8, §9

[2] = test system: Zea mays HPPD mutant Seq ID 67; assay: HPPD activity assay, in vitro characterization; settings: normalized to Hordeum SEQ ID NO:2
Protocol: as §1, §2, §3, §4, §5, §7, §8, §9

[3] = test system: Zea mays HPPD mutant Seq ID 69; assay: HPPD activity assay, in vitro characterization; settings: normalized to Hordeum SEQ ID NO:2
Protocol: as §1, §2, §3, §4, §5, §7, §8, §9

[4] = target: T2, Arabidopsis HPPD variant M335H, P336A (Arabidopsis thaliana, UniProt P93836, M335H/P336A); assay: HPPD activity assay, in vitro characterization of HPPD mutants; settings: normalized to wildtype
T2 construct: His6 (N); made in house; host or cells: E. coli BL21 (DE3)
T2 sequence (P93836 whole entry M335H/P336A): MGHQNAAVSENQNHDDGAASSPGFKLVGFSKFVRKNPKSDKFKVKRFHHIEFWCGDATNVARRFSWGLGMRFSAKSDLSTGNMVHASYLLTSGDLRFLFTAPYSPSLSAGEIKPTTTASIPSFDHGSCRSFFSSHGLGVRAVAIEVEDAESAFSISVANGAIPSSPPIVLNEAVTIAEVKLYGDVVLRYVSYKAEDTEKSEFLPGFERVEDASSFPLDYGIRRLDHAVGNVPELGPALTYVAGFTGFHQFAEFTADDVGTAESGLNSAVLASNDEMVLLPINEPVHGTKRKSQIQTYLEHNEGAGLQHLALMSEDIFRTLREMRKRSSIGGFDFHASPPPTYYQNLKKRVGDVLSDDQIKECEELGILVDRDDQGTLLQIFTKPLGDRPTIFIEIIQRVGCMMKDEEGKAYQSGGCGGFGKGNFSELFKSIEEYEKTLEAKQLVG
Protocol: as §1, §2, §3, §4, §5, §6
Purified, mutant HPPD enzymes are obtained by the methods described above. Dose response and kinetic measurements are carried out using the described HPPD activity assay. Apparent michaelis constants (Km) and maximal reaction velocities (Vmax) are calculated by non-linear regression with the software GraphPad Prism 5 (GraphPad Software, La Jolla, USA) using a substrate inhibition model. […] Weighted means (by standard error) of Km and IC50 values are calculated from at least three independent experiments.
Field performance of the optimized HPPD enzyme, which is used as a herbicide tolerance trait may depend not only on its lack of sensitivity towards HPPD inhibiting herbicides but also on its activity. To assess the potential performance of a herbicide tolerance trait a tolerance index (TI) is calculated using the following formula: […]

[5] = Hordeum HPPD Wild-type (SEQ ID NO: 2), reference of Table 16
[6] = Hordeum HPPD, reference, normalized to SEQ ID NO:2

T1 sequence (O48604 whole entry R146V/R147D/R148G/A164G): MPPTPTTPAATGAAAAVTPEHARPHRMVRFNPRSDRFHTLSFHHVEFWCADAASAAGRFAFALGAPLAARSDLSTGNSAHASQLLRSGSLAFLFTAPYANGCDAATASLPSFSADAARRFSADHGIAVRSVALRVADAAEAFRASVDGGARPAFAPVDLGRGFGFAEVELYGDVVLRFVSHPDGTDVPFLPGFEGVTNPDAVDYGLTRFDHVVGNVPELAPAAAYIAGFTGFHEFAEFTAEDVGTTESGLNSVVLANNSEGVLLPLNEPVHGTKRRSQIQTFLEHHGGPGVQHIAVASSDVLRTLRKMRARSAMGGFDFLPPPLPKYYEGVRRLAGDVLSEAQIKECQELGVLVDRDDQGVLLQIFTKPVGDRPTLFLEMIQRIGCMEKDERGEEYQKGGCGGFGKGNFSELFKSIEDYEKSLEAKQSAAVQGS

Structure (SMILES): Cn1nnnc1NC(=O)c1c(F)cc(Cl)c(S(C)(=O)=O)c1Cl [Inhibitor 1, 2,4-dichloro-6-fluoro-3-methylsulfonyl-N-(1-methyltetrazol-5-yl)benzamide]
- Ki [1]: 3.7 nM
- Normalized tolerance index (TI) [1, 5]: 1
- Normalized tolerance index (TI) [1, 6]: 1
- TI (tolerance index) ([1]; Hordeum HPPD, not normalized): 1.6E−3
- Normalized tolerance index (TI) (Kordia HPPD): 1.2
- Normalized tolerance index (TI) (Lolium HPPD): 4.2
- Normalized tolerance index (TI) (Rhodococcus HPPD1): 2.8
- Normalized tolerance index (TI) (Rhodococcus HPPD2): 2.8
- Normalized tolerance index (TI) [2]: 5
- Normalized tolerance index (TI) [3]: 1.4
- Normalized tolerance index (TI) [4]: 0.6

Structure (SMILES): CSc1c(Cl)cc(F)c(C(=O)Nc2ncnn2C)c1Cl [Inhibitor 3, 2,4-dichloro-6-fluoro-3-methylsulfanyl-N-(2-methyl-1,2,4-triazol-3-yl)benzamide]
- Normalized tolerance index (TI) [1, 5]: 1
- Normalized tolerance index (TI) [1, 6]: 1
- Normalized tolerance index (TI) (Kordia HPPD): 3.1
- Normalized tolerance index (TI) (Lolium HPPD): 1.7
- Normalized tolerance index (TI) (Rhodococcus HPPD1): 0.4
- Normalized tolerance index (TI) (Rhodococcus HPPD2): 12.5
- Normalized tolerance index (TI) [2]: 3.8
- Normalized tolerance index (TI) [3]: 0.7
- Normalized tolerance index (TI) [4]: 0.2
